Source: patent US20240384268A1, “Oligonucleotides” (Hudson Institute of Medical Research, priority 2021, published 2024)
In the oligonucleotide strings, read from the 5' end, every base follows the letter of its sugar. An asterisk marks phosphorothioate; unmarked linkages are phosphodiester. Other units and linkages are bracketed, terminal groups are in braces. A string of capitals states the bases alone. d = 2'-deoxy (DNA); m = 2'-O-methyl

Molecular target: T1, human TLR7 (Homo sapiens, UniProt Q9NYK1)
T1 construct: HA; host or cells: 293XL-hTLR7-HA (HEK293)
T1 sequence (Q9NYK1 27-1049): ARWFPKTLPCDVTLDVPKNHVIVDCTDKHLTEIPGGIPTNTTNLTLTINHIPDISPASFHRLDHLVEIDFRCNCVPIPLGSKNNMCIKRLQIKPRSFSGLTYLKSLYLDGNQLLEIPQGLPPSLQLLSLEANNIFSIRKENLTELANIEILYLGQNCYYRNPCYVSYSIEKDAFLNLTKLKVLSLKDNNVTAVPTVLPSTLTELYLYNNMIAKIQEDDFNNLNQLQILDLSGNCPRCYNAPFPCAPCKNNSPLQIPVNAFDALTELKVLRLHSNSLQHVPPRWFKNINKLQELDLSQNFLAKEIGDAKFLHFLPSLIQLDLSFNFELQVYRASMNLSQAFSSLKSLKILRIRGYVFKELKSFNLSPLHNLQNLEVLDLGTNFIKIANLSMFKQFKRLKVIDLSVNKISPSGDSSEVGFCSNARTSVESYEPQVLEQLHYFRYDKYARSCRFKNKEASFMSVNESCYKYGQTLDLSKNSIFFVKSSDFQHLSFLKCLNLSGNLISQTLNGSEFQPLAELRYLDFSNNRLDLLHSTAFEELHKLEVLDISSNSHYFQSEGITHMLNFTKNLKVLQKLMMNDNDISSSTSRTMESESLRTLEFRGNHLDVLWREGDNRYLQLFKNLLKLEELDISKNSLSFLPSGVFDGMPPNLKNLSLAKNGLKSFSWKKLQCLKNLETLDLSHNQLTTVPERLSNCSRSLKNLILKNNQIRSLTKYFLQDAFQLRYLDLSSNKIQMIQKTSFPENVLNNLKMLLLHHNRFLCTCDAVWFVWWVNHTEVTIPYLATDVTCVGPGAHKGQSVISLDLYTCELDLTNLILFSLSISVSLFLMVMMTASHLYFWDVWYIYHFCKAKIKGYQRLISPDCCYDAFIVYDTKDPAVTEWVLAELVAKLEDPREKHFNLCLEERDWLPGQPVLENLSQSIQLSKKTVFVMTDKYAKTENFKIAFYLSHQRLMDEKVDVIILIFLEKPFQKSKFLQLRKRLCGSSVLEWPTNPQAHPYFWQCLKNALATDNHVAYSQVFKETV
Assay: HEK-TLR7 NF-κB-luciferase reporter, R848 stimulation
Type: cell-based
Details: for TLR7-100 nM: averaged NF-κB-Luciferase relative to R848: HEK-TLR7, 100 nM ASO, percentage of R848 without ASO (Alharbi et al., 2020); for TLR7 100 nM: MOE-modified ASO at 100 nM; for TLR7 100 nM / TLR7 500 nM: averaged NF-κB-Luciferase relative to R848 condition; for TLR7 500 nM: MOE-modified ASO at 500 nM

Substance | TLR7-100 nM: averaged NF-κB-Luciferase relative to R848 | TLR7 100 nM | TLR7 500 nM
mG*mG*mU*mC*mC*C*A*T*C*C*C*T*T*C*T*mG*mC*mU*mG*mC (GGUCCCATCCCTTCTGCUGC; sugars from the 5' end m5 d10 m5, all phosphorothioate, methylation of C not given here) [[LINC-PINT]103] | 20.75% | – | –
mU*mC*mU*mG*mG*T*C*C*C*A*T*C*C*C*T*mU*mC*mU*mG*mC (UCUGGTCCCATCCCTUCUGC; antisense; sugars from the 5' end m5 d10 m5, all phosphorothioate, methylation of C not given here) [[LINC-PINT]106] | 29.42% | – | –
mU*mC*mC*mC*mA*A*C*T*C*T*T*C*T*A*A*mC*mU*mC*mG*mU (mU*mC*mC*mC*mA*dA*dC*dT*dC*dT*dT*dC*dT*dA*dA*mC*mU*mC*mG*mU; antisense) [[LINC-PINT]1284 KL] | 40.79% | – | –
TCCGGCCTCGGAAGCTCTCT (antisense; 2'-MOE modified, pattern not given here) [MB21D1-168 MOE] | – | 0.440 | 0.166
TGGGTTACGGCTCAGTATGG (antisense; 2'-MOE modified, pattern not given here) [CAMSAP1-4295 MOE] | – | 0.427 | 0.167
mU*mG*mU*mG*mA*A*A*A*G*A*T*T*A*T*C*mU*mU*mC*mU*mU (UGUGAAAAGATTATCUUCUU; sugars from the 5' end m5 d10 m5, all phosphorothioate, methylation of C not given here) [[CDKN2B-AS1]2137] | 34.51% | – | –
mC*mU*mC*mU*mC*T*G*G*T*C*C*C*A*T*C*mC*mC*mU*mU*mC (mC*mU*mC*mU*mC*dT*dG*dG*dT*dC*dC*dC*dA*dT*dC*mC*mC*mU*mU*mC; antisense) [[LINC-PINT]109] | 84.97% | – | –
mU*mC*mC*mC*mA*T*C*C*C*T*T*C*T*G*C*mU*mG*mA*mC*mA (UCCCATCCCTTCTGCUGACA; sugars from the 5' end m5 d10 m5, all phosphorothioate, methylation of C not given here) [[LINC-PINT]101] | 43.08% | – | –
mC*mU*mU*mU*mA*T*A*T*T*A*C*A*A*A*G*mC*mU*mA*mC*mU (mC*mU*mU*mU*mA*dT*dA*dT*dT*dA*dC*dA*dA*dA*dG*mC*mU*mA*mC*mU; antisense) [[LINC-PINT]2755] | 54.83% | – | –
mU*mG*mA*mC*mA*A*A*A*C*A*A*T*A*A*T*mA*mA*mC*mA*mG (mU*mG*mA*mC*mA*dA*dA*dA*dC*dA*dA*dT*dA*dA*dT*mA*mA*mC*mA*mG) [[LINC-PINT]384] | 36.68% | – | –
mG*mG*mU*mC*mU*C*C*T*C*C*A*C*A*C*C*mC*mU*mU*mC*mU (mG*mG*mU*mC*mU*dC*dC*dT*dC*dC*dA*dC*dA*dC*dC*mC*mU*mU*mC*mU; antisense) [[LINC-PINT]127] | 23.66% | – | –
mC*mC*mU*mU*mC*T*G*C*T*G*C*C*A*A*G*mC*mC*mC*mC*mA (mC*mC*mU*mU*mC*dT*dG*dC*dT*dG*dC*dC*dA*dA*dG*mC*mC*mC*mC*mA; antisense) [[LINC-PINT]94] | 85.57% | – | –
mA*mA*mA*mU*mG*T*C*C*T*G*G*C*C*C*T*mC*mA*mC*mU*mG (mA*mA*mA*mU*mG*dT*dC*dC*dT*dG*dG*dC*dC*dC*dT*mC*mA*mC*mU*mG) [[LINC-PINT]148.1] | 46.45% | – | –
mG*mC*mA*mA*mG*G*C*A*G*A*G*A*A*A*C*mU*mC*mC*mA*mG (GCAAGGCAGAGAAACUCCAG; sugars from the 5' end m5 d10 m5, all phosphorothioate, methylation of C not given here) [[LINC-PINT]1315 KL] | 19,99% | – | –
mG*mU*mC*mC*mC*A*G*G*C*C*T*C*C*A*G*mU*mG*mU*mC*mU (mG*mU*mC*mC*mC*dA*dG*dG*dC*dC*dT*dC*dC*dA*dG*mU*mG*mU*mC*mU; antisense) [[CDKN2B-AS1]2223] | 19.01% | – | –
GGGTATCGAAAGAGTCTGGA (antisense; 2'-MOE modified, pattern not given here) [EGFR-3908 MOE] | – | 0.350 | 0.079

Substance | TLR7-100 nM: averaged NF-κB-Luciferase relative to R848 | TLR7 100 nM | TLR7 500 nM
mU*mU*mA*mG*mC*T*C*C*T*T*G*C*C*T*C*mG*mU*mU*mC*mC (mU*mU*mA*mG*mC*dT*dC*dC*dT*dT*dG*dC*dC*dT*dC*mG*mU*mU*mC*mC; antisense) [[LINC-PINT] 1222] | 31.67% | – | –
mA*mU*mA*mU*mC*T*G*C*T*G*C*C*C*A*C*mC*mU*mU*mC*mU (AUAUCTGCTGCCCACCUUCU; antisense; sugars from the 5' end m5 d10 m5, all phosphorothioate, methylation of C not given here) [[CDKN2B-AS1]831] | 47.52% | – | –
mU*mC*mU*mC*mU*C*T*G*G*T*C*C*C*A*T*mC*mC*mC*mU*mU (mU*mC*mU*mC*mU*dC*dT*dG*dG*dT*dC*dC*dC*dA*dT*mC*mC*mC*mU*mU; antisense) [[LINC-PINT]110] | 43.82% | – | –
mG*mU*mC*mC*mG*T*A*C*C*T*C*C*A*C*C*mC″mA*mC*mC*mG [[LINC-PINT]727.1] | 22.79% | – | –
mU*mU*mG*mG*mC*C*T*G*T*G*G*A*T*G*C*mU*mU*mU*mG*mU (mU*mU*mG*mG*mC*dC*dT*dG*dT*dG*dG*dA*dT*dG*dC*mU*mU*mU*mG*mU) [[LINC-PINT]2673.1] | 21.43% | – | –
mA*mA*mG*mG*mU*G*G*C*C*A*C*A*G*G*C*mA*mA*mC*mG*mU (mA*mA*mG*mG*mU*dG*dG*dC*dC*dA*dC*dA*dG*dG*dC*mA*mA*mC*mG*mU; antisense) [[CDKN2B-AS1]2198] | 57.85% | – | –
mG*mG*mG*mU*mC*T*C*C*T*C*C*A*C*A*C*mC*mC*mU*mU*mC (GGGUCTCCTCCACACCCUUC; antisense; sugars from the 5' end m5 d10 m5, all phosphorothioate, methylation of C not given here) [[LINC-PINT]128] | 21.47% | – | –
mA*mA*mG*mA*mU*T*A*T*C*T*T*C*T*T*T*mU*mA*mA*mU*mU (mA*mA*mG*mA*mU*dT*dA*dT*dC*dT*dT*dC*dT*dT*dT*mU*mA*mA*mU*mU) [[CDKN2B-AS1]2131] | 42.09% | – | –
mC*mC*mA*mU*mC*C*C*T*T*C*T*G*C*T*G*mC*mC*mA*mA*mG (mC*mC*mA*mU*mC*dC*dC*dT*dT*dC*dT*dG*dC*dT*dG*mC*mC*mA*mA*mG; antisense) [ILING-PINT199] | 52.57% | – | –
TGGCAGGCTCAGTGATGTCT (antisense; 2'-MOE modified, pattern not given here) [CTNN2B-1642 MOE] | – | 0.415 | 0.167
mG*mA*mU*mU*mA*A*A*A*C*A*G*A*T*T*A*mA*mU*mA*mC*mA (mG*mA*mU*mU*mA*dA*dA*dA*dC*dA*dG*dA*dT*dT*dA*mA*mU*mA*mC*mA) [[CDKN2B-AS1]1773] | 21.92% | – | –
mG*mU*mC*mC*mC*A*T*C*C*C*T*T*C*T*G*mC*mU*mG*mC*mC (GUCCCATCCCTTCTGCUGCC; antisense; sugars from the 5' end m5 d10 m5, all phosphorothioate, methylation of C not given here) [[LINC-PINT]102] | 22.47% | – | –
ATGCCATCCACTTGATAGGC (antisense; 2'-MOE modified, pattern not given here) [EGFR-2874 MOE] | – | 0.668 | 0.390
mC*mC*mU*mA*mG*A*A*A*G*A*A*G*C*A*A*mA*mG*mA*mU*mU (mC*mC*mU*mA*mG*dA*dA*dA*dG*dA*dA*dG*dC*dA*dA*mA*mG*mA*mU*mU) [[CDKN2B-AS1]1522] | 57.20% | – | –
mA*mA*mA*mA*mU*A*A*G*G*G*G*A*A*T*A*mG*mG*mG*mG*mA (mA*mA*mA*mA*mU*dA*dA*dG*dG*dG*dG*dA*dA*dT*dA*mG*mG*mG*mG*mA; antisense) [[CDKN2B-AS1]79] | 68.45% | – | –
mG*mC*mG*mU*mA*G*T*T*T*C*T*C*T*T*C*mC*mU*mC*mC*mC (GCGUAGTTTCTCTTCCUCCC; sugars from the 5' end m5 d10 m5, all phosphorothioate, methylation of C not given here) [[LINC-PINT]935 KL] | 27.23% | – | –
